Consider eight molecules from patent US20250206732A1, “COMPOUNDS AND METHODS FOR THE TARGETED DEGRADATION OF KRAS” (Arvinas Operations, Inc., priority 2022, published 2025).

The target in test [1] is T1, AsPC-1 HiBiT-KRASG12D (Homo sapiens, UniProt P01116, G12D).
T1 construct: insert the HiBiT tag onto the N-terminus of one or more of the endogenous KRAS alleles; endogenous in cells; host or cells: AsPC-1 (ATCC CRL-1682), CRISPR-Cas9 knock-in clone, one tagged allele
Briefly: HiBiT degradation assay (G12D), AsPC-1 HiBiT-KRASG12D cells. The class given is cell-based. The conditions noted are these: 24 hours treatment; for Dmax: ASPC1, AsPC-1 HiBiT-KRASG12D cells, maximum degradation observed; for DC50: AsPC-1 HiBiT-KRASG12D cells, HiBiT luminescence. In a few lines: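 In this degradation format, an engineered AsPC-1 clone with HiBiT fused to the KRAS N-terminus is exposed to compounds for 24 hours, after which remaining tagged protein is quantified by lytic HiBiT luminescence.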
A general note: With HiBiT, luminescence reflects the tagged protein that the partner subunit can reach.

The target of test [2] is T2, SW1573 HiBiT-KRASG12C (Homo sapiens, UniProt P01116, G12C).
T2 construct: expressed in transfected cells
Briefly: HiBiT degradation assay (G12C), SW1573 HiBiT-KRASG12C cells.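 For DC50: Letter grades: C is 1000 to 3000 nM and D is above 3000 nM.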 As to conditions: 24 hours treatment; for DC50: HiBiT luminescence; for Dmax: maximum degradation observed. The class given is cell-based. The method, then: Reagents. SW1573 (CRL-2170), AsPC-1 (CRL-1682), and SW620 (CCL-227) cells were purchased from ATCC. SW1573 cells are homozygous for the G12C mutation in KRAS, AsPC-1 cells are homozygous for the G12D mutation, and SW620 cells are homozygous for the G12V mutation. SW1573 cells were cultured in DMEM+F12+Glutamax (+Sodium Bicarbonate, +sodium pyruvate, ThermoFisher scientific, #10565) supplemented with 10% FBS (ThermoFisher scientific, #2060357) and 1% Antibiotic-Antimycotic (ThermoFisher scientific, #15240096). AsPC-1 cells were cultured in GIBCO RPMI-1640 (ThermoFisher scientific, catalog #61870-036 with Glutamax, No HEPES, No Na Pyruvate) supplemented with 10% FBS (ThermoFisher scientific, catalog #2060357) and 1× Penicillin-Streptomycin (ThermoFisher scientific, catalog #15140122, 10000 U/ml, 100×). SW620 cells were cultured in DMEM Glutamax (ThermoFisher scientific, catalog #10566016) supplemented with 10% FBS (ThermoFisher scientific, catalog #2060357) and 1× Penicillin-Streptomycin (ThermoFisher scientific, catalog #15140122, 10000 U/ml, 100×). For degradation assays, 384 well plates were used. Alamar blue was purchased from ThermoFisher scientific (A50101) and used according to manufacturer instructions. The Nano-Glo® HiBiT Lytic Detection System and Nano-Glo® HiBiT Blotting System were purchased from Promega (#N3050 and #N2410) and used according to manufacturer instructions.
HiBiT-tagged cell line generation. To create the SW1573 HiBiT-KRASG12C cell line, the nucleotide sequence encoding the 11 amino acid HiBiT tag from Promegal was appended to the N-terminus of the KRASG12C coding sequence. This synthesized DNA was cloned into a modified pcDNA3.1 vector under the control of the thymidine kinase (TK) promoter. This HiBiT-KRASG12C expressing plasmid was transfected into parental SW1573 cells and colonies were selected using 400 μg/mL zeocin. The resulting clonal lines were screened for expression of HiBiT-KRASG12C protein using Nano-Glo® HiBiT Blotting System. A luminescent band of the correct size for HiBiT-KRASG12C was detected in several clones. Clone E6 was selected for further studies.
HiBiT degradation assays (G12C and G12D). Either SW1573 HiBiT-KRasG12C or AsPC-1 HiBiT-KRasG12D cells were plated at 9000 or 15,000 cells/well in a 384 well plate (Corning #3770). Compounds of the present disclosure and positive controls were diluted in the appropriate cell media and applied to the plated cells resulting in a final concentration titration of 10 μM to 508 pM in 0.5% DMSO. Gambogic acid was used as a positive control for cytotoxicity and titrated from 10 μM to 78 nM. All assays were performed in triplicate. Cells were treated with compounds for 24 hours at 37° C. in an incubator containing 5% CO2. Following treatment, alamar blue was used to determine if any compounds led to a loss in cell viability after 24 hours. The 10× alamar blue reagent was added to a final concentration of 1× as recommended by the manufacturer and cells were returned to the incubator for 4 hours. Plates were then allowed to equilibrate to room temperature and fluorescence was measured using a Perkin-Elmer EnVision. After completion of the fluorescence read, the liquid from each well was removed and the cells were washed with PBS. The Nano-Glo® HiBiT detection reagent was prepared according to the manufacturer's instructions and added to each well after the PBS wash was removed. Following incubation at room temperature for 45 minutes, the luminescence was read using the ultra-sensitive luminescence aperture on the Envision instrument.
Data analysis. Fluorescence values from the alamar blue treatment were normalized to the DMSO-only control for each compound titration. […]

T2 sequence (P01116 1-188 isoform P01116-2 G12C): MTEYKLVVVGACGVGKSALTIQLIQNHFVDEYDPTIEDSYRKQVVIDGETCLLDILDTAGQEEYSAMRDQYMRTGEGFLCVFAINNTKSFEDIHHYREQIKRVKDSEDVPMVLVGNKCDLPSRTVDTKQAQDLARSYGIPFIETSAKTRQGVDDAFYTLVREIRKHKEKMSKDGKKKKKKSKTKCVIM
T1 sequence (P01116 1-188 isoform P01116-2 G12D): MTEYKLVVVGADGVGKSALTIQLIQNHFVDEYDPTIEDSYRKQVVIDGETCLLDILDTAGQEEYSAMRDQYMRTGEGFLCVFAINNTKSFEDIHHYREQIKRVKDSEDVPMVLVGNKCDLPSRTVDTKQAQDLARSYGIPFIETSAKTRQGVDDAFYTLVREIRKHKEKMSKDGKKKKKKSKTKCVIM

Take `Cc1ncsc1-c1ccc([C@H](C)NC(=O)[C@@H]2C[C@@H](O)CN2C(=O)[C@@H](c2cc(OCC3CCN(CCOc4nc(N5CC6CCC(C5)N6)c5cnc(-c6cc(O)cc(Cl)c6C6CC6)c(F)c5n4)CC3)no2)C(C)C)cc1` [Compound 43, (2S,4R)-1-[(2R)-2-(3-{[1-(2-{[7-(3-chloro-2-cyclopropyl-5-hydroxyphenyl)-4-{3,8-diazabicyclo[3.2.1]octan-3-yl}-8-fluoropyrido[4,3-d]pyrimidin-2-yl]oxy}ethyl)piperidin-4-yl]methoxy}-1,2-oxazol-5-yl)-3-methylbutanoyl]-4-hydroxy-N-[(1S)-1-[4-(4-methyl-1,3-thiazol-5-yl)phenyl]ethyl]pyrrolidine-2-carboxamide]: in test [1], the Dmax (usually the greatest extent of degradation seen) lay within 80 to 100% and the DC50 (in general, the midpoint of the concentration-degradation curve) is less than 0.6 µM. Moreover, in test [2], the DC50 is greater than 3 µM and the Dmax lay in the range of 20 to 60%.
In test [1], `CCc1cccc2cc(O)cc(-c3ncc4c(N5CC6CCC(C5)N6)nc(OCCN5CCC(COCC(=O)N[C@H](C(=O)N6C[C@H](O)C[C@H]6C(=O)N[C@@H](C)c6ccc(-c7scnc7C)cc6)C(C)(C)C)CC5)nc4c3F)c12` [Compound 21, (2S,4R)-1-[(2S)-2-[[2-[[1-[2-[4-(3,8-diazabicyclo[3.2.1]octan-3-yl)-7-(8-ethyl-3-hydroxy-1-naphthyl)-8-fluoro-pyrido[4,3-d]pyrimidin-2-yl]oxyethyl]-4-piperidyl]methoxy]acetyl]amino]-3,3-dimethyl-butanoyl]-4-hydroxy-N-[(1S)-1-[4-(4-methylthiazol-5-yl)phenyl]ethyl]pyrrolidine-2-carboxamide] displayed a Dmax of 80 to 100% and a DC50 of less than 0.6 µM. The 50% degradation concentration (DC50) in test [2] was greater than 3 µM.
`Cc1ncsc1-c1ccc([C@H](C)NC(=O)[C@@H]2C[C@@H](O)CN2C(=O)[C@@H](c2cc(OCC3CCN(CCOc4nc(N5CC6CCC(C5)N6)c5cnc(-c6cc(O)cc7cccc(Cl)c67)c(F)c5n4)CC3)no2)C(C)C)cc1` [Compound 40, (2S,4R)-1-[(2R)-2-(3-{[1-(2-{[7-(8-chloro-3-hydroxynaphthalen-1-yl)-4-{3,8-diazabicyclo[3.2.1]octan-3-yl}-8-fluoropyrido[4,3-d]pyrimidin-2-yl]oxy}ethyl)piperidin-4-yl]methoxy}-1,2-oxazol-5-yl)-3-methylbutanoyl]-4-hydroxy-N-[(1S)-1-[4-(4-methyl-1,3-thiazol-5-yl)phenyl]ethyl]pyrrolidine-2-carboxamide] displayed a Dmax in test [1] of 80 to 100%. Besides, the DC50 in test [1] was less than 0.6 µM; in test [2] it was greater than 3 µM.
In test [1], `C#Cc1cccc2cc(O)cc(-c3ncc4c(N5CC6CCC(C5)N6)nc(OCCN5CCC(COc6cc([C@H](C(=O)N7C[C@H](O)C[C@H]7C(=O)N[C@@H](C)c7ccc(-c8scnc8C)cc7)C(C)C)on6)CC5)nc4c3F)c12` [Compound 48, (2S,4R)-1-[(2R)-2-{3-[(1-{2-[(4-{3,8-diazabicyclo[3.2.1]octan-3-yl}-7-(8-ethynyl-3-hydroxynaphthalen-1-yl)-8-fluoropyrido[4,3-d]pyrimidin-2-yl)oxy]ethyl}piperidin-4-yl)methoxy]-1,2-oxazol-5-yl}-3-methylbutanoyl]-4-hydroxy-N-[(1S)-1-[4-(4-methyl-1,3-thiazol-5-yl)phenyl]ethyl]pyrrolidine-2-carboxamide] yielded a Dmax of 80 to 100% and a DC50 of less than 0.6 µM. Further, the 50% degradation concentration (DC50) in test [2] was greater than 3 µM.
For `CCc1cccc2cc(O)cc(-c3ncc4c(N5CC6CCC(C5)N6)nc(OCCN5CCC6(CC5)CN(c5cc([C@@H](C(=O)N7C[C@H](O)C[C@H]7C(=O)N[C@@H](C)c7ccc(-c8scnc8C)cc7)C(C)C)on5)C6)nc4c3F)c12` [Compound 15, (2S,4R)-1-[(2S)-2-[3-[7-[2-[4-(3,8-diazabicyclo[3.2.1]octan-3-yl)-7-(8-ethyl-3-hydroxy-1-naphthyl)-8-fluoro-pyrido[4,3-d]pyrimidin-2-yl]oxyethyl]-2,7-diazaspiro[3.5]nonan-2-yl]isoxazol-5-yl]-3-methyl-butanoyl]-4-hydroxy-N-[(1S)-1-[4-(4-methylthiazol-5-yl)phenyl]ethyl]pyrrolidine-2-carboxamide] the same measures were 20 to 60%, 1 to 3 µM and greater than 3 µM.
For `CCc1cccc2cc(O)cc(-c3ncc4c(N5CC6CCC(C5)N6)nc(OCCN5CCC6(CC5)CN(c5cc([C@H](C(=O)N7C[C@H](O)C[C@H]7C(=O)N[C@@H](C)c7ccc(-c8scnc8C)cc7)C(C)C)on5)C6)nc4c3F)c12` [Compound 16, (2S,4R)-1-[(2R)-2-[3-[7-[2-[4-(3,8-diazabicyclo[3.2.1]octan-3-yl)-7-(8-ethyl-3-hydroxy-1-naphthyl)-8-fluoro-pyrido[4,3-d]pyrimidin-2-yl]oxyethyl]-2,7-diazaspiro[3.5]nonan-2-yl]isoxazol-5-yl]-3-methyl-butanoyl]-4-hydroxy-N-[(1S)-1-[4-(4-methylthiazol-5-yl)phenyl]ethyl]pyrrolidine-2-carboxamide] the same measures were 80 to 100%, less than 0.6 µM and greater than 3 µM.
In the case of `Cc1ncsc1-c1ccc([C@H](C)NC(=O)[C@@H]2C[C@@H](O)CN2C(=O)[C@@H](c2cc(OCC3CCN(CCOc4nc(N5CC6CCC(C5)N6)c5cnc(-c6cc(O)cc(Cl)c6C(C)C)c(F)c5n4)CC3)no2)C(C)C)cc1` [Compound 41, (2S,4R)-1-[(2R)-2-[3-({1-[2-({7-[3-chloro-5-hydroxy-2-(propan-2-yl)phenyl]-4-{3,8-diazabicyclo[3.2.1]octan-3-yl}-8-fluoropyrido[4,3-d]pyrimidin-2-yl}oxy)ethyl]piperidin-4-yl}methoxy)-1,2-oxazol-5-yl]-3-methylbutanoyl]-4-hydroxy-N-[(1S)-1-[4-(4-methyl-1,3-thiazol-5-yl)phenyl]ethyl]pyrrolidine-2-carboxamide], the Dmax in test [1] and in test [2] was 20 to 60% each time. Besides, the figures for the DC50 in test [1] and in test [2] were less than 0.6 µM and greater than 3 µM, respectively.
Turning to `CCc1cccc2cc(O)cc(-c3ncc4c(N5CCCCCC5)nc(OC[C@@]56CCCN5[C@H](COC(=O)N5CCN(c7cc([C@@H](C(=O)N8C[C@H](O)C[C@H]8C(=O)N[C@@H](C)c8ccc(-c9scnc9C)cc8)C(C)C)on7)CC5)CC6)nc4c3F)c12` [Compound 44, [(3S,7aS)-7a-({[4-(azepan-1-yl)-7-(8-ethyl-3-hydroxynaphthalen-1-yl)-8-fluoropyrido[4,3-d]pyrimidin-2-yl]oxy}methyl)-hexahydro-1H-pyrrolizin-3-yl]methyl 4-{5-[(2S)-1-[(2S,4R)-4-hydroxy-2-{[(1S)-1-[4-(4-methyl-1,3-thiazol-5-yl)phenyl]ethyl]carbamoyl}pyrrolidin-1-yl]-3-methyl-1-oxobutan-2-yl]-1,2-oxazol-3-yl}piperazine-1-carboxylate], in test [1], the Dmax is less than 20% and the DC50 is less than 0.6 µM. Moreover, in test [2], the DC50 was greater than 3 µM.
